From patent publication US7803801B2, “Aminopyridine compounds having Syk inhibitory activity” (Japan Tobacco, Inc., priority 2005, dated 2010)
Counter-ions that a name gives are not always drawn. Like-named read-outs stand apart in the source and are kept apart here.

Key:
[1] = system: cultured human mast cells; assay: Degranulation inhibition test using cultured human mast cells (IgE cross-linking, β-Hexosaminidase release); assay type: cell-based; conditions: Mast cell, cultured human mast cells, read-out: human degranulation ave. IC50
Method in brief: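 CD34+ cord-blood cells cultured ≥8 weeks with SCF/IL-6/IL-3; FcεRI primed 5 days with rhIL-4 (1 ng/mL) and hIgE (0.5 μg/mL). Compound (0.1% DMSO) preincubated 10 min at 37 °C, then anti-IgE (final 10 μg/mL) 30 min; released β-hexosaminidase read at 405 nm versus total lysate, IC50 (M).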

[2] = target: GST-Syk Full Protein (human) (Homo sapiens, UniProt P43405); assay: Syk kinase inhibition test (HTRF method); assay type: biochemical
Method in brief: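 Human GST-Syk full-length (6.4 nM) phosphorylated biotin-EDPDYEWPSA-NH2 (250 nM) with 100 μM ATP in HEPES pH 7.0/MgCl2 buffer, 2% DMSO, 30 min at room temperature. EDTA stop, then HTRF detection (streptavidin-XL665, Eu anti-phosphotyrosine) after 1 h; 665/620 ratio read.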

[3] = Tables 1-x, compounds A, read-out: sykHTRF ave IC50
[4] = anti-hIgE stimulation, β-Hexosaminidase index, average
[5] = HTRF, 100 μM ATP, 30 min room temperature, average, read-out: sykHTRF ave IC50
[6] = Tables 2-x, thiophene compounds B
[7] = Tables 2-x, thiophene compounds B, read-out: sykHTRK ave IC50

SMILES | IC50 ([1]; Tables 1-x, compounds A) | IC50 [2, 3] | IC50 [1, 4] | IC50 [2, 5] | also measured
Cc1ccnc(Nc2cccc(-c3cnc(N4CCN(S(C)(=O)=O)CC4)s3)n2)c1 [Compound A-412] | 100 to 1000 nM | 100 to 1000 nM |  |  | 
OCCc1ccnc(Nc2cccc(-c3cnc(N4CC[C@@H](O)C4)s3)n2)c1 [Compound A-577, (R)-1-(5-{6-[4-(2-hydroxyethyl)pyridin-2-ylamino]pyridin-2-yl}thiazol-2-yl)pyrrolidin-3-ol dihydrochloride] | 100 to 1000 nM | < 100 nM |  |  | 
CC(=O)N[C@@H](C)c1ncc(-c2cccc(Nc3cc(OCCN(C)C)ccn3)n2)s1 [Compound A-166] |  |  | > 1000 nM | > 1000 nM | 
Cc1ccnc(Nc2cccc(-c3cnc(C4=NCCC4)s3)n2)c1 [Compound A-110] |  |  | 100 to 1000 nM | 100 to 1000 nM | 
CC(=O)c1ccc(-c2cccc(Nc3cc(C(=O)O)ccn3)n2)s1 [Compound B-58] |  |  |  |  | IC50 [1, 6]: > 1000 nM; IC50 [2, 7]: > 1000 nM
Cc1ccnc(Nc2cccc(-c3ccc(C(=O)NC(C)(C)CO)s3)n2)c1 [Compound B-72] |  |  |  |  | IC50 [1, 6]: 100 to 1000 nM; IC50 [2, 7]: 100 to 1000 nM
Cc1ccnc(Nc2cccc(-c3cnc(N(CCO)CCO)s3)n2)c1 [Compound A-544, 2-(N-(2-hydroxyethyl)-N-{5-[6-(4-methylpyridin-2-ylamino)pyridin-2-yl]thiazol-2-yl}amino)ethanol] | < 100 nM | < 100 nM |  |  | 
Cc1ccnc(Nc2cccc(-c3ccc(C(=O)N4CCC(O)CC4)s3)n2)c1 [Compound B-79] |  |  |  |  | IC50 [1, 6]: 100 to 1000 nM; IC50 [2, 7]: 100 to 1000 nM
Cc1ccnc(Nc2cccc(-c3sc([N+](=O)[O-])cc3C)n2)c1 [Compound B-21] |  |  |  |  | IC50 [1, 6]: > 1000 nM; IC50 [2, 7]: > 1000 nM
Cc1ccnc(Nc2cccc(-c3cnc(CN4C[C@H](NCc5ccccc5)[C@@H](O)C4)s3)n2)c1 [Compound A-400] | 100 to 1000 nM | 100 to 1000 nM |  |  | 
O[C@@H]1CCN(c2ncc(-c3cccc(Nc4cc(Cl)ccn4)n3)s2)C1 [Compound A-539, (R)-1-{5-[6-(4-chloropyridin-2-ylamino)pyridin-2-yl]thiazol-2-yl}pyrrolidin-3-ol] | < 100 nM | < 100 nM |  |  | 
Cc1ccnc(Nc2cccc(-c3ccc(C(=O)N(C)C)s3)n2)c1 [Compound B-22] |  |  |  |  | IC50 [1, 6]: > 1000 nM; IC50 [2, 7]: 100 to 1000 nM
Cc1ccnc(Nc2cccc(-c3ccc(C(=O)N4CCNCC4)s3)n2)c1 [Compound B-84, {5-[6-(4-methylpyridin-2-ylamino)pyridin-2-yl]thiophen-2-yl}piperazin-1-ylmethanone] |  |  |  |  | IC50 [1, 6]: 100 to 1000 nM; IC50 [2, 7]: < 100 nM
Cc1ccnc(Nc2cccc(-c3cnc(CN4CCN(c5ccc(O)cc5)CC4)s3)n2)c1 [Compound A-382] | 100 to 1000 nM | 100 to 1000 nM |  |  | 
COc1ccc(C[C@H](N)c2ncc(-c3cccc(Nc4cc(C)ccn4)n3)s2)cc1OC [Compound A-138] |  |  | > 1000 nM | 100 to 1000 nM | 
COc1ccnc(Nc2cccc(-c3cnc(N4CCN(C(C)=O)CC4)s3)n2)c1 [Compound A-442, 1-(4-{5-[6-(4-methoxypyridin-2-ylamino)pyridin-2-yl]thiazol-2-yl}piperazin-1-yl)ethanone] | 100 to 1000 nM | < 100 nM |  |  | 
CC(=O)N[C@@H](C)c1ncc(-c2cccc(Nc3cc(CC(=O)O)ccn3)n2)s1 [Compound A-331] |  |  | > 1000 nM | > 1000 nM | 
Cc1ccnc(Nc2cccc(-c3cnc([C@H](C)NC(=O)N(C)C)s3)n2)c1 [Compound A-56] |  |  | 100 to 1000 nM | 100 to 1000 nM | 
CN(c1ncc(-c2cccc(Nc3cc(Cl)ccn3)n2)s1)C1CCN(C(=O)CO)CC1 [Compound A-537, 1-[4-(N-{5-[6-(4-chloropyridin-2-ylamino)pyridin-2-yl]thiazol-2-yl}-N-methylamino)piperidin-1-yl]-2-hydroxyethanone] | 100 to 1000 nM | < 100 nM |  |  | 
CC(=O)O[C@@H](c1ccccc1)c1ncc(-c2cccc(Nc3cc(C)ccn3)n2)s1 [Compound A-318] |  |  | > 1000 nM | 100 to 1000 nM | 
CC(=O)N[C@@H](C)c1ncc(-c2cccc(Nc3cc(OCc4ccccc4)ccn3)n2)s1 [Compound A-80] |  |  | 100 to 1000 nM | 100 to 1000 nM | 
CCOC(=O)Cc1ccnc(Nc2cccc(-c3ccc(C(C)=O)s3)n2)c1 [Compound B-52, {2-[6-(5-acetylthiophen-2-yl)pyridin-2-ylamino]pyridin-4-yl}acetic acid ethyl ester] |  |  |  |  | IC50 [1, 6]: > 1000 nM; IC50 [2, 7]: < 100 nM

Further lines, with some results ahead:

IC50 ([1]; Tables 1-x, compounds A) | IC50 [2, 3] | IC50 [1, 4] | IC50 [2, 5] | SMILES | also measured
 |  | > 1000 nM | > 1000 nM | Cc1ccnc(Nc2cccc(-c3cnc(Cc4ccc(C(=O)N5CCC(O)CC5)cc4)s3)n2)c1 [Compound A-234] | 
 |  | 100 to 1000 nM | < 100 nM | Cc1ccnc(Nc2cccc(-c3cnc([C@H]4CC[C@H](C(=O)N5CC[C@H](O)[C@H](O)C5)CC4)s3)n2)c1 [Compound A-239, ((3R,4S)-3,4-dihydroxypiperidin-1-yl)-(trans-4-{5-[6-(4-methylpyridin-2-ylamino)pyridin-2-yl]thiazol-2-yl}cyclohexyl)methanone] | 
 |  | < 100 nM | < 100 nM | COc1ccnc(Nc2cccc(-c3cnc([C@H]4CC[C@H](C(N)=O)CC4)s3)n2)c1 [Compound A-339, trans-4-{5-[6-(4-methoxypyridin-2-ylamino)pyridin-2-yl]thiazol-2-yl}cyclohexanecarboxamide] | 
> 1000 nM | < 100 nM |  |  | Cc1ccnc(Nc2cccc(-c3cnc(N4CCN(C(=O)CCC(=O)O)CC4)s3)n2)c1 [Compound A-551, 4-(4-{5-[6-(4-methylpyridin-2-ylamino)pyridin-2-yl]thiazol-2-yl}piperazin-1-yl)-4-oxobutyric acid] | 
 |  | 100 to 1000 nM | 100 to 1000 nM | Cc1ccnc(Nc2cccc(-c3cnc(C)s3)n2)c1 [Compound A-231] | 
 |  | > 1000 nM | 100 to 1000 nM | Cc1ccnc(Nc2cccc(-c3cnc(CNc4ccc(CC(=O)N5CCC(O)CC5)cc4)s3)n2)c1 [Compound A-278] | 
 |  | > 1000 nM | 100 to 1000 nM | COC(=O)C(C)(C)NC(=O)c1ncc(-c2cccc(Nc3cc(C)ccn3)n2)s1 [Compound A-153] | 
100 to 1000 nM | < 100 nM |  |  | Cc1ccnc(Nc2cccc(-c3cnc(N(C)[C@H]4CC[C@H](CC(=O)O)CC4)s3)n2)c1 [Compound A-610, [trans-4-(N-methyl-N-{5-[6-(4-methylpyridin-2-ylamino)pyridin-2-yl]thiazol-2-yl}amino)cyclohexyl]acetic acid] | 
> 1000 nM | 100 to 1000 nM |  |  | Cc1ccnc(Nc2cccc(-c3cnc(N4CCC(C(=O)N5CCC(O)CC5)CC4)s3)n2)c1 [Compound A-420] | 
< 100 nM | < 100 nM |  |  | Cc1ccnc(Nc2cccc(-c3cnc(N4CCC[C@H]4C(N)=O)s3)n2)c1 [Compound A-528, (S)-1-{5-[6-(4-methylpyridin-2-ylamino)pyridin-2-yl]thiazol-2-yl}pyrrolidine-2-carboxamide] | 
100 to 1000 nM | < 100 nM |  |  | CNC(=O)N1CCC(N(C)c2ncc(-c3cccc(Nc4cc(C)ccn4)n3)s2)CC1 [Compound A-460, N-methyl-4-(N′-methyl-N′-{5-[6-(4-methylpyridin-2-ylamino)pyridin-2-yl]thiazol-2-yl}amino)piperidine-1-carboxamide] | 
> 1000 nM | < 100 nM |  |  | Cc1ccnc(Nc2cccc(-c3cnc(N(CC(N)=O)[C@H]4CC[C@@H](C(=O)O)CC4)s3)n2)c1 [Compound A-598, cis-4-(N-carbamoylmethyl-N-{5-[6-(4-methylpyridin-2-ylamino)pyridin-2-yl]thiazol-2-yl}amino)cyclohexanecarboxylic acid] | 
< 100 nM | < 100 nM |  |  | NC(=O)C1CCN(c2ncc(-c3cccc(Nc4cc(Cl)ccn4)n3)s2)CC1 [Compound A-518, 1-{5-[6-(4-chloropyridin-2-ylamino)pyridin-2-yl]thiazol-2-yl}piperidine-4-carboxamide] | 
> 1000 nM | < 100 nM |  |  | Cc1ccnc(Nc2cccc(-c3cnc(N4CC[C@@H](OCC(=O)O)C4)s3)n2)c1 [Compound A-575, ((R)-1-{5-[6-(4-methylpyridin-2-ylamino)pyridin-2-yl]thiazol-2-yl}pyrrolidin-3-yloxy)acetic acid dihydrochloride] | 
 |  | > 1000 nM | > 1000 nM | Cc1ccnc(Nc2cccc(-c3cnc(COC(=O)NC[C@H]4CC[C@H](C(=O)O)CC4)s3)n2)c1 [Compound A-206] | 
100 to 1000 nM | < 100 nM |  |  | O=C(O)[C@@H]1CCCN(c2ncc(-c3cccc(Nc4cc(Cl)ccn4)n3)s2)C1 [Compound A-546, (R)-1-{5-[6-(4-chloropyridin-2-ylamino)pyridin-2-yl]thiazol-2-yl}piperidine-3-carboxylic acid] | 
 |  | > 1000 nM | < 100 nM | Cc1ccnc(Nc2cccc(-c3cnc([C@H]4CC[C@H](C(=O)N[C@@H](CO)Cc5cnc[nH]5)CC4)s3)n2)c1 [Compound A-303, N—[(R)-2-hydroxy-1-(3H-imidazol-4-ylmethyl)ethyl]-trans-4-{5-[6-(4-methylpyridin-2-ylamino)pyridin-2-yl]thiazol-2-yl}cyclohexanecarboxamide] | 
 |  | 100 to 1000 nM | 100 to 1000 nM | Cc1ccnc(Nc2cccc(-c3cnc(COC(=O)N4CCOCC4)s3)n2)c1 [Compound A-346] | 
 |  | > 1000 nM | 100 to 1000 nM | Cc1ccnc(Nc2cccc(-c3cnc([C@@H](O)CCC(=O)O)s3)n2)c1 [Compound A-107] | 
